Experimental data from patent US8247227B2, “Dendritic cell precursors” (The Cleveland Clinic Foundation, priority 2006, dated 2012).

Columns and labels:
[1] = test system: Flt3L+IL6 conditioned BM cells; test: Immunosuppressive factors added to Step 2 culture: DC1 polarization; format: cell-based, mouse; conditions: factor added in Step 2, TLR agonist-induced
Experimental: FIG. 7A is a histogram showing Step 2 cultures (cells were re-plated in GMCSF and IL-4 at 0 hr, CpG+LPS added at 24 hr, FACS performed at 44 hr), except that listed immunosuppressive factors were added at 0 hr, 1 hr, 2 hr, or 4 hr of Step 2 culture, and supernatants analyzed by ELISA in triplicate for IL-12 p70 content at 44 hr of Step 2 culture. Error bars indicate s.d. This is representative of three experiments;
We investigated whether Flt3L+IL6 proliferative conditioning conferred uniform responsiveness to DC1 polarization stimuli even in the presence of putative immunosuppressive factors. We added IL10, TGFβ1 VEGF, or PGE2 at doses which equaled and exceeded those reported to inhibit the maturation of other DC preparations (Kao, J Y et al. J. Immunol. 170, 3806-3811 (2003); Kobie, J J et al. Cancer Res. 63, 1860-1864 (2003); Gabrilovich, D. et al. Blood 92, 4150-4166 (1998); Dikov, M M et al. J. Immunol. 174, 215-222 (2005); Shurin, M R et al. Int. J. Cancer 101, 61-68 (2002); Yang, A S et al. Cancer Res. 63, 2150-2157 (2003); Kalinski, P. et al. J. Immunol. 161, 2804-2809 (1998)).
(§1) Step 2 was initiated (0 hr) in CM, rmGMCSF and optionally rmIL4. Step 2 cultures were performed in 24 well cluster plates, 4 million BM cells per well in 2 ml CM. DC1 polarization stimuli such as CpG (ODN 1826, 5 μM) and LPS 50 ng/ml were added between 18-24 hrs, and cells harvested at 40-44 hrs for analyses. When included, immunosuppressive agents rmIL10, rmVEGF, rhTGFβ1 or PGE2 were added between 0 and 24 hrs of Step 2 culture at doses specified in Results. Alternatively, particulate tumor cells, either viable unirradiated, viable irradiated (10,000 cGy), or killed freeze-thawed lysate (Cohen, P A et al. Cancer Res. 54, 1055-1058 (1994)), were added to Step 2 BM cells. Viable tumor cells were sometimes labelled with CFSE (Molecular Probes, Eugene, Oreg.) to allow their identification and exclusion during subsequent FACS analyses (Peng, L. et al. J. Immunol. 169, 4811-4821 (2002)).

L-selectin^low T cells = test: T cell co-cultures with variously conditioned DCs; format: cell-based, mouse; conditions: DCs from other conditioning treatments
Experimental: Step 2 DC cultures were performed in rGMCSF and rIL-4 with irradiated MCA-203 cells added at 24 hr and CpG+LPS added at 44 hr. Four hours later, DCs were harvested for co-culture with L-selectin^low T cells freshly harvested from MCA-203 tumor-bearing mice. T cells were co-cultured with DCs at an 8:1 ratio or were activated with immobilized anti-CD3. […] Cultures shown also received exogenous IL-2, IL-7 and IL-15.
Cultures shown also received exogenous IL2, IL7 and IL15.
Conditioned DC precursors were transferred to Step 2 culture, exposed to viable irradiated tumor, optionally further activated with CpG+LPS, then co-cultured with tolerized TDLN T cells from mice bearing the relevant tumor.
Prior to harvest of T cells from tumor-bearing mice, DCs were prepared under various Step 1 conditions in CM; Step 2 was performed in 1% non heat-deactivated mouse serum instead of FCS (CM-MS), during which BM cultures were exposed to viable irradiated tumor cells, then CpG+LPS as denoted in Results. On the day of DC harvest, T cells were freshly harvested from the tumor-draining lymph nodes of mice bearing 12 day tumors. The L-selectin^low (tolerized pre-effector) fraction of T cells was isolated by negative selection as described previously (Peng, L. et al. J. Immunol. 165, 5738-5749 (2000); Wang, L. et al. J. Translational Med. 2, 41 (2004)), and cultured in CM-MS with immobilized anti-CD3 (Peng, L. et al. J. Immunol. 165, 5738-5749 (2000); Wang, L. et al. J. Translational Med. 2, 41 (2004)) or variously conditioned DCs. Beginning on day 2 of T cell culture, some groups also received rhIL2 (24 I.U./m1), or rhIL2, rhIL7 (50 ng/ml) and rhIL15 (5 ng/ml). T cells were harvested for assays and adoptive therapy after 12 days of culture.

[2] = test system: CD34^pos stem cell subpopulation; test: Step 1 proliferative culture of fresh bone marrow: numeric expansion; format: cell-based, mouse; conditions: for effectiveness as alternative Step 1 factor: rhIL6 100 ng/ml instead of mIL6, rSCF instead of mSCF; for superimposed proliferative impacts: added to Step 1 culture
Experimental: FIG. 6 is a chart showing numeric expansion resulting from the exposure of bone marrow (BM) suspensions to various factors. BM freshly harvested from C57BL/6 mice was cultured for 6 days in the specific factors, then harvested and counted. Each bar represents 3-11 determinations±s.d., each performed in synchronous comparison to at least five other groups. […] Synergistic expansions reflected a 35-80 fold selective outgrowth of the CD34^pos subpopulation (see FIG. 10);
FIG. 10 is a histogram showing gross numeric expansion of fresh bone marrow (BM) reflective of selective outgrowth of the CD34^pos subpopulation. Freshly prepared mouse BM cell suspensions were stained with FITC-anti-CD34 mAb to enable isolation of CD34^pos and CD34^neg subpopulations by a FACSAria cell sorter. CD34^pos cells initially represented 10.8±7% of the total BM cells. The following groups were then cultured for 6 days in 75 cm^2 flasks, either in Flt3L+SCF+IL6 (striped bars) or in Flt3L+IL6 (solid bars): “Unfractionated BM” (12-15 million per flask); “FACS sorted CD34^neg cells” (12-15 million per flask); “FACS sorted CD34^pos cells” (2-3 million per flask); or “FACS sorted, unirradiated CD34^pos cells plus irradiated (3,000 cGy) CD34^neg cells.” Labels above bars indicate fold numeric expansion during the 6 day culture. […] (Not done=group not done);
We cultured fresh mouse BM in two stages, a 6-7 day proliferative phase (Step 1) and a 2-3 day post-proliferative phase (Step 2). […] FACS sorting experiments confirmed that such expansion represented a net 35-80 fold proliferation of the minor (<12%) CD34^pos stem cell subpopulation, with rapid dropout of the initially CD34^neg subpopulation (FIG. 10). Stem cell proliferation persisted well past day 7 if medium and factors were adequately replenished (not shown).
Single cell suspensions were prepared from the femurs and tibias of healthy mice (Kuriyama, H. et al. Dev. Biol. (Basel) 116, 169-178 (2004)). Following RBC lysis by ammonium chloride, no further processing was performed. […] BM cells were normally cultured for 6-7 days, harvested, counted, and washed twice in PBS prior to initiation of Step 2 cultures.

[3] = test system: CD11c^pos cells and CD34^pos cells; test: In vivo cytokine treatment for six days: spleen and BM CD11c^pos and CD34^pos cells; set-up: species or system BALB/c mice; conditions: with rhFlt3-L 10 mcg i.p. daily
Excerpt: FIGS. 15A-D are a series of graphs showing BALB/c mice treated for six days with either (A) nothing, (B) rhFlt3-L 10 mcg i.p. daily, (C) rhIL-6 mcg i.p. three times daily, and (D) rhFlt3-L 10 mcg i.p. daily plus rhIL-6 50 mcg i.p. three times daily. The next day mice were euthanized, spleens and BM harvested, and CD11c^pos cells (committed DC lineage) and CD34^pos cells (stem cells, potential DC precursors) quantified. Results are representative of four experiments. […] This is representative of four experiments;
FIGS. 16A-D are a series of graphs showing BALB/c mice treated for six days with either (A) nothing, (B) rhFlt3-L 10 mcg i.p. daily, (C) rhFlt3-L 10 mcg i.p. daily plus rhIL-6 50 mcg i.p. three times daily, (D) rhFlt3-L 10 mcg i.p. daily plus rhIL-6 50 mcg i.p. once daily, (E) rhFlt3-L 10 mcg i.p. daily plus rhIL-6 10 mcg i.p. three times daily, and (F) rhFlt3-L 10 mcg i.p. daily plus rhIL-6 10 mcg i.p. once times daily. The next day mice were euthanized, spleens and BM harvested, and CD11c^pos cells (committed DC lineage) and CD34^pos cells (stem cells, potential DC precursors) quantified. Results are representative of three experiments.

BM cells = test: Step 2 culture: spontaneous DC maturation without exogenous maturation stimuli; format: cell-based, mouse; conditions: after Flt3L or Flt3L+IL6 conditioning
Excerpt: DC differentiation typically arrests at the immature stage unless DCs are exposed to additional signals such as CD40 ligation, calcium ionophore or TLR agonists (Xu, S. et al. J. Immunol. 171, 2251-2261 (2003); Bonifaz, L. et al. J. Exp. Med. 196, 1627-1638 (2002); Napolitani, G. et al. Nat. Immunol. 6, 769-776 (2005); Czerniecki, B J et al. J. Immunol. 159, 3823-3837 (1997); Mailliard, R B et al. Cancer Res. 64, 5934-5937 (2004)). […] Instead, uniform upregulation of MHC Class II and CD11c ensued within hours of transfer from Flt3L+IL6 into GMCSF, followed by upregulation of CD40, co-stimulatory molecules and CCR7 between 48 and 72 hours of Step 2 culture.
as §1

conditioned BM cells = test: Tumor contact during Step 2 culture: DC maturation and IL12 production; format: cell-based, mouse
Experimental: Because DC ingestion of cellular material can induce tolerogenic DCs (Bonifaz, L. et al. J. Exp. Med. 196, 1627-1638 (2002)), we tested the impact of exposing DCs to large volumes of tumor at 16-24 hours of Step 2 culture in GMCSF, to determine tumor's impact on subsequent spontaneous maturation. To cluster plate wells each containing 4 million conditioned BM cells, we added either 4 million freeze-thawed (killed) tumor cells; 3 million irradiated (10,000 cGy), trypan-excluding tumor cells; or 2 million unirradiated, actively proliferating tumor cells. Given the much larger dimensions of viable tumor cells compared to the cultured BM cells, these represented voluminous tumor challenges.
as §1

Molecule: VEGF
- impact upon DC1 polarization (phenotypic maturation, IL12) [1]: negligible impacts

Molecule: IL15
- rescue of DC toxicity to T cells by exogenous cytokine (L-selectin^low T cells): could not be rescued

Molecule: CCCCC[C@H](O)/C=C/[C@H]1[C@H](O)CC(=O)[C@@H]1C/C=C\CCCC(=O)O [PGE2, prostaglandin E2, reference compound]
- impact upon DC1 polarization (phenotypic maturation, IL12) [1]: substantially inhibited

Molecule: rhIL6: recombinant human interleukin-6
- effectiveness as alternative Step 1 factor [2]: also effective
- 10 mcg versus 50 mcg dosing [3]: as effective as 50 mcg dosing
- thrice daily versus once daily administration [3]: more effective than once daily

Molecule: TGFI31: immunosuppressive factor, recombinant human TGFβ1
- impact upon DC1 polarization (phenotypic maturation, IL12) [1]: paradoxically enhanced both phenotypic maturation and IL12 secretion

Molecule: fibronectin
- superimposed proliferative impacts [2]: negligible superimposed proliferative impacts

B1: thrombopoeitin: recombinant murine thrombopoeitin (protein, UniProt P40226 22-356, looked up)
Thrombopoietin: SPVAPACDPRLLNKLLRDSHLLHSRLSQCPDVDPLSIPVLLPAVDFSLGEWKTQTEQSKAQDILGAVSLLLEGVMAARGQLEPSCLSSLLGQLSGQVRLLLGALQGLLGTQLPLQGRTTAHKDPNALFLSLQQLLRGKVRFLLLVEGPTLCVRRTLPTTAVPSSTSQLLTLNKFPNRTSGLLETNFSVTARTAGPGLLSRLQGFRVKITPGQLNQTSRSPVQISGYLNRTHGPVNGTHGLFAGTSLQTLEASDISPGAFNKGSLAFNLQGGLPPSPSLAPDGHTPFPPSPALPTTHGSPPQLHPLFPDPSTTMPNSTAPHPVTMYPHPRNLSQET
- superimposed proliferative impacts [2]: negligible superimposed proliferative impacts

B2: rSCF: recombinant stem cell factor, alternative to mSCF (protein, UniProt P20826 26-190, looked up)
Soluble KIT ligand: KEICGNPVTDNVKDITKLVANLPNDYMITLNYVAGMDVLPSHCWLRDMVIQLSLSLTTLLDKFSNISEGLSNYSIIDKLGKIVDDLVLCMEENAPKNIKESPKRPETRSFTPEEFFSIFNRSIDAFKDFMVASDTSDCVLSSTLGPEKDSRVSVTKPFMLPPVAA
- effectiveness as alternative Step 1 factor [2]: also effective

B3: IL4: recombinant mouse IL4 (protein, UniProt P07750 21-140, looked up)
Interleukin-4: HIHGCDKNHLREIIGILNEVTGEGTPCTEMDVPNVLTATKNTTESELVCRASKVLRIFYLKHGKTPCLKKNSSVLMELQRLFRAFRCLDSSISCTMNESKSTSLKDFLESLKSIMQMDYS
- spontaneous DC maturation with exogenous IL4 in Step 2 (BM cells): even more robust

B4: IL7 (protein, UniProt P13232 26-177, looked up)
Interleukin-7: DCDIEGKDGKQYESVLMVSIDQLLDSMKEIGSNCLNNEFNFFKRHICDANKEGMFLFRAARKLRQFLKMNSTGDFDLHLLKVSEGTTILLNCTGQVKGRKPAALGEAQPTKSLEENKSLKEQKKLNDLCFLKRLLQEIKTCWNKILMGTKEH
- rescue of DC toxicity to T cells by exogenous cytokine (L-selectin^low T cells): could not be rescued

B5: IFNγ: recombinant mouse interferon gamma (protein, UniProt P01580 23-155, looked up)
Interferon gamma: HGTVIESLESLNNYFNSSGIDVEEKSLFLDIWRNWQKDGDMKILQSQIISFYLRLFEVLKDNQAISNNISVIESHLITTFFSNSKAKKDAFMSIAKFEVNNPQVQRQAFNELIRVVHQLLPESSLRKRKRSRC
- IL12 production (conditioned BM cells; IFNγ treatment alone): Neither tumor nor IFNγ treatment alone induced IL12 production
- IL12 (p70) production (conditioned BM cells; tumor exposure combined with IFNγ, Flt3L+IL6 conditioned): could induce IL12 (p70) production

B6: IL10: immunosuppressive factor, recombinant mouse IL10 (protein, UniProt P18893 19-178, looked up)
Interleukin-10: SRGQYSREDNNCTHFPVGQSHMLLELRTAFSQVKTFFQTKDQLDNILLTDSLMQDFKGYLGCQALSEMIQFYLVEVMPQAEKHGPEIKEHLNSLGEKLKTLRMRLRRCHRFLPCENKSKAVEQVKSDFNKLQDQGVYKAMNEFDIFINCIEAYMMIKMKS
- impact upon DC1 polarization (phenotypic maturation, IL12) [1]: negligible impacts
